Among the test systems are Malme-3M; EKVX; MOLT-4; HCC 2998; LOX IMVI; SK-MEL-5; UO-31; HCT-15; RPMI-8226; M14; NCI-H226; U-251; HOP-62; SW-620; BT-549; UACC-62; HOP-92; DMS-273; MDA-MB-435; NCI-H522.
Holding throughout (experiment): DTP human tumour cell line panel, 48 h

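A five-concentration, 48-hour dose response in 96-well plates underlies each endpoint, interpolated linearly between surrounding concentrations. Here, GI50 denotes the concentration required for 50% inhibition of growth.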 The source made the active and inactive calls. Rule as the data show it: active = GI50 up to about 1.1 µM and inactive = higher. A value given as a limit tells only on which side of the number the result lay.

For orientation: GI50 means the concentration that inhibits growth by half.

Regarding `CN(C)c1ccc(/C=C/c2cc[n+](C)c3ccccc23)cc1`, the GI50 in the test with Malme-3M is 4.51 µM (inactive); in the test on EKVX, 34.7 µM (inactive); in the test on MOLT-4, 3.4 µM (inactive); with HCC 2998, 6.32 µM (inactive); in the test with LOX IMVI, 3.48 µM (inactive); in the test on SK-MEL-5 it was 2.19 µM (inactive). Moreover, the GI50 with UO-31 was 23.8 µM (inactive); with HCT-15 it was 29.9 µM; with RPMI-8226 it was 2.95 µM (inactive); with M14, 3.44 µM (inactive); in the test with NCI-H226, 2.53 µM (inactive); with U-251 it was 2.75 µM (inactive). Further, the GI50 is 4.63 µM (inactive) with HOP-62; 2.44 µM (inactive) in the test on SW-620; 437 nM (active) in the test on BT-549; 3.13 µM (inactive) in the test with UACC-62; 2.96 µM (inactive) in the test with HOP-92; 2.39 µM (inactive) in the test on DMS-273. Also, the GI50 in the test on MDA-MB-435 is 2.03 µM (inactive); in the test with NCI-H522, 1.98 µM (inactive).

Consider `COC(=O)c1cc(C(=O)OC)c(CC(=O)C(=O)NC2C3CC4CC(C3)CC2C4)nc1CC(=O)C(=O)NC1C2CC3CC(C2)CC1C3` (stereo not given), for which the GI50 was > 100 µM (inactive) in the test on Malme-3M; > 100 µM (inactive) in the test with EKVX; 37.3 µM (inactive) in the test on MOLT-4; > 100 µM (inactive) with HCC 2998; > 100 µM (inactive) in the test with LOX IMVI; > 100 µM (inactive) in the test with SK-MEL-5. Moreover, the GI50 with UO-31 is > 100 µM (inactive); in the test on HCT-15, greater than 100 µM; with RPMI-8226, > 100 µM (inactive); with M14, > 100 µM (inactive); with NCI-H226, > 100 µM (inactive); with U-251, > 100 µM (inactive). For the same molecule, the GI50 was > 100 µM (inactive) with HOP-62; > 100 µM (inactive) in the test on SW-620; > 100 µM (inactive) in the test with UACC-62; 74.6 µM (inactive) with HOP-92; > 100 µM (inactive) with DMS-273; > 100 µM (inactive) in the test with NCI-H522.

Regarding `COC(=O)/C=C(C)/C=C/C1OC(C)OCC1O` (stereo not given), the GI50 with Malme-3M, with EKVX, in the test on MOLT-4, in the test with HCC 2998, in the test on LOX IMVI and in the test on SK-MEL-5 was > 100 µM (inactive) each time. The GI50 in the test on UO-31 was > 100 µM (inactive); with HCT-15 it was greater than 100 µM; in the test with RPMI-8226 it was > 100 µM (inactive); in the test on M14 it was > 100 µM (inactive); in the test with NCI-H226, > 100 µM (inactive); in the test on U-251 it was > 100 µM (inactive). Besides, the GI50 in the test on HOP-62, with SW-620, with UACC-62, in the test with HOP-92, in the test with DMS-273 and in the test on NCI-H522 was > 100 µM (inactive) in each case.

For `Nc1nc2c(ncn2Cc2ccccc2CCO)c(=O)[nH]1`, the GI50 with Malme-3M, with EKVX, with MOLT-4, in the test on HCC 2998, in the test on LOX IMVI and in the test on SK-MEL-5 was > 100 µM (inactive) in each case. For the same molecule, the GI50 with UO-31 is > 100 µM (inactive); in the test with HCT-15, greater than 100 µM; in the test on RPMI-8226 it was > 100 µM (inactive); in the test with M14, > 100 µM (inactive); with NCI-H226, 41 µM (inactive); in the test on U-251, > 100 µM (inactive). Further, the GI50 with HOP-62, in the test on SW-620, in the test on UACC-62, in the test on HOP-92, in the test with DMS-273 and in the test with NCI-H522 was > 100 µM (inactive) in each case.

As for `Cc1csc2nc(-c3ccncc3)cn12`, the GI50 in the test with Malme-3M was > 100 µM (inactive); in the test on EKVX it was > 59.7 µM (inactive); with MOLT-4, > 100 µM (inactive); in the test on HCC 2998 it was > 100 µM (inactive); with LOX IMVI it was > 43.4 µM (inactive); in the test with SK-MEL-5, > 100 µM (inactive). Moreover, the GI50 was > 100 µM (inactive) in the test on UO-31; greater than 40.9 µM in the test on HCT-15; > 45.1 µM (inactive) in the test with RPMI-8226; > 68.2 µM (inactive) in the test on M14; > 100 µM (inactive) in the test with NCI-H226; > 46.9 µM (inactive) in the test on U-251. In addition, the GI50 was > 100 µM (inactive) with HOP-62; > 21.1 µM (inactive) in the test on SW-620; > 100 µM (inactive) with UACC-62; > 100 µM (inactive) in the test with HOP-92; 19.7 µM (inactive) with DMS-273; > 82.2 µM (inactive) in the test on NCI-H522.

`N#Cc1cc([N+](=O)[O-])ccc1NC(=O)C(F)(F)F`: the GI50 was > 100 µM (inactive) in the test on Malme-3M; > 100 µM (inactive) with EKVX; > 100 µM (inactive) with MOLT-4; > 100 µM (inactive) in the test on HCC 2998; > 34.7 µM (inactive) with LOX IMVI; > 100 µM (inactive) with SK-MEL-5. The GI50 with UO-31 is > 100 µM (inactive); in the test on HCT-15, greater than 41.4 µM; with RPMI-8226, > 45.8 µM (inactive); in the test with M14 it was > 100 µM (inactive); in the test with NCI-H226, > 88.7 µM (inactive); in the test on U-251 it was > 100 µM (inactive). Besides, the GI50 with HOP-62 was > 100 µM (inactive); in the test with SW-620, > 40.9 µM (inactive); in the test on UACC-62, > 100 µM (inactive); with HOP-92, 58.7 µM (inactive); with DMS-273 it was > 100 µM (inactive); in the test with NCI-H522, > 58.5 µM (inactive).

For the origin of these results see ChEMBL document CHEMBL1201862, “PubChem BioAssay data set” (2004).
